# Laboratory results: patent publication US4888347A, “Use of specific N-methyl-D-aspartate receptor antagonists in the prevention and treatment of neurodegeneration” (Merck Sharp & Dohme Limited, priority 1986, dated 1989)
# pKi: −log10 of the molar value. Read-outs that look alike come from different tables or passages of the source.
# Columns and labels:
# [1] = tested on: gerbil hippocampus calcium levels; assay: Prevention of increases in calcium levels in gerbil hippocampus following bilateral artery occlusion; format: in vivo
# Source text: (d) The neuroprotective activity of compounds for use in accordance with the invention has also been determined by measuring the ability of the compounds to prevent increases in calcium levels in the gerbil hippocampus following bilateral artery occlusion.
# [2] = molecular target: N-methyl-D-aspartate (NMDA) receptors ([3H]-MK-801 binding); assay: Displacement of [3H]-MK-801 binding, crude synaptosomal membrane fraction (P2) from rat cerebral cortex; conditions: displacement of [3H]-MK-801, rat cerebral cortex membranes
# Description: The compounds useful in the novel method of treatment of this invention bind with a high affinity and in a reversible and saturable manner to membranes from rat brain cortex. In addition these useful compounds potently and selectively block responses to NMDA in a brain slice from rate cortex, the antagonism apparently being non-competitive.
# Binding of [^3 H]-MK-801 to rat brain in vitro was conducted in a crude synaptosomal membrane fraction (P2) prepared from rat cerebral cortex according to a modified method of Hulme et al, Molecular Pharmocology 14, 737-750 (1978).
# [3] = tested on: NMDA responses of cortical neurons (NMDA receptor); assay: Rat cortical slice, responses to NMDA; format: cell-based; conditions: read-out: Apparent Potency as NMDA Antagonist Kb
# Description: (§1) The effects of MK-801 and its analogs on responses to NMDA and quisqualate were assessed using the rat cortical slice as described by Harrison et al., Brit. J. Pharmacol, 84, 381-391 (1985). Cortical neurons in this preparation are depolarized by bath applications of NMDA. MK-801 produces a dose dependent depression of NMDA responses with a threshold dose of about 100 nM and complete suppression of responses at 1 μM.
# The apparent potencies of MK-801 and its analogs are shown in Table IV; they correlate closely with results from [^3 H]-MK-801 binding studies.
# responses to quisqualate [4] = assay: Rat cortical slice, responses to quisqualate; format: cell-based; conditions: doses of up to 30 μM
# Description: as §1
# [5] = tested on: gerbils (neuronal degeneration in the hippocampus); assay: Gerbil ischaemia, 5 minute occlusion of both carotid arteries, neuronal degeneration in hippocampus; format: in vivo
# Description: (c) Ischaemia was induced in gerbils by 5 minute occlusion of both carotid arteries. Restoration of blood flow after occlusion was checked visually and the animals allowed to survive for 4 days. The extent of neuronal degeneration in the hippocampus was measured. Test animals were treated by administering MK-801 at doses of 1, 3 and 10 mg/kg (i.p.) one hour prior to occlusion.
# gerbils = assay: Gerbil ischaemia, 30 minute unilateral carotid artery occlusion, survival; format: in vivo; conditions: 30 min occlusion
# Description: (§2) (a) Ischaemia was induced in gerbils by 10 or 30 minute unilateral occlusion of the carotid artery. Restoration of blood flow after occlusion was checked visually and the animals were allowed to survive for 4 days. The extent of neuronal degeneration in the hippocampus was assessed. Test animals were treated by administering MK-801 at doses of 1 and 10 mg/kg (i.p.) one hour prior to artery occulsion.
# [6] = tested on: NMDA receptor mediated events on central neurons; assay: Cortical slices from rats pretreated with MK-801, responses to NMDA; format: in vivo, rat; conditions: slices from rats pretreated 1 mg/kg i.p. 2 hours before sacrifice, vs untreated animals
# Description: (§3) The responses to NMDA and quisqualate were examined on cortical slices from 4 rats which had been pretreated with MK-801 (1 mg/kg, i.p) 2 hours before they were sacrificed. Responses to NMDA were markedly depressed resulting in a shift to the right of the NMDA dose-response curve of approximately 2.4 fold when compared to the mean NMDA dose-response curved from untreated animals.
# [7] = tested on: gerbils (neuronal degeneration in the hippocampus); assay: Gerbil ischaemia, 10 minute unilateral carotid artery occlusion, neuronal degeneration in hippocampus; format: in vivo; conditions: 10 min occlusion
# Description: as §2
# [8] = tested on: gerbils (neuronal damage in the hippocampus); assay: Gerbil right carotid artery occlusion 10 minutes, repeated MK-801 dosing, neuronal damage in hippocampus; format: in vivo; conditions: 1 mg/kg i.p. one hour before, then 1, 3, 5, 10 and 15 hours following 10 min occlusion
# Description: (b) The right carotid artery of gerbils was occluded for 10 minutes and MK-801 at a dose of 1 mg/kg (i.p.) administered one hour before, then 1, 3, 5, 10 and 15 hours following occlusion. The animals were allowed to survive for 4 days and the extent of neuronal damage in the hippocampus was assessed.
# responses to kainate = assay: Rat cortical slice, responses to kainate; format: cell-based; conditions: doses of up to 30 μM
# responses to quisqualate [9] = assay: Cortical slices from rats pretreated with MK-801, responses to quisqualate; format: in vivo, rat; conditions: slices from rats pretreated 1 mg/kg i.p. 2 hours before sacrifice
# Description: as §3
# [10] = Table I, read-out: Displacement potencies Ki
# [11] = Table II, read-out: Displacement potencies Ki
Compound,"pKi [2, 10]",Kb [3],other results
"CC12NC(Cc3ccccc31)c1ccc(O)cc12 [L-665,039]",7.70,130 nM,Depression of Hippocampal [Ca^2+] Relative Potency (MK-801 = 1) [1]: 0.8
"CC12NC(Cc3ccccc31)c1cc(O)ccc12 [L-641,285]",7.30,100 nM,–
"CCC12NC(Cc3ccccc31)Cc1ccccc12 [L-639,420]",–,200 nM,"pKi [2, 11]: 6.92"
"CCCCN1C2(C)c3ccccc3C1(C)c1ccccc12 [L-633,744]",–,470 nM,"pKi ([2]; Table III, read-out: Ki): 6.41"
"CN1C2(C)c3ccccc3C1(C)c1ccccc12 [L-627,891]",–,1130 nM,"pKi ([2]; Table III, read-out: Ki): 6.66"
"CC12NC(Cc3ccccc31)Cc1ccccc12 [L-638,204]",–,310 nM,"pKi [2, 11]: 6.85"
"CC12NC(Cc3ccccc31)c1ccccc12 (single isomer, unassigned) [L-640,690]",6.49,300 nM,–
"CC12NC(Cc3cc(O)ccc31)c1ccccc12 [L-641,291]",6.47,510 nM,Depression of Hippocampal [Ca^2+] Relative Potency (MK-801 = 1) [1]: 1
"CCCN1C2Cc3ccccc3C1(C)c1ccccc12 [L-645,156]",6.35,–,–
"CCC12NC(Cc3ccccc31)c1ccccc12 [L-639,057]",7.30,500 nM,–
"CC12NC(Cc3ccccc31)c1ccc(Br)cc12 [L-639,442]",6.74,400 nM,–
"CC12NC(Cc3ccc(Br)cc31)c1ccccc12 [L-639,441]",7.70,1000 nM,–
"OCCC12NC(Cc3ccccc31)c1ccccc12 [L-639,902]",6.59,200 nM,–
"CC12c3ccccc3CC(c3ccccc31)N2CCO [L-641,042]",4.89,–,–
"CC12c3ccccc3C(C)(c3ccccc31)N2C1CC1 [L-632,938]",–,640 nM,"pKi ([2]; Table III, read-out: Ki): 5.40"
"CCCN1C2(C)c3ccccc3C1(C)c1ccccc12 [L-633,170]",–,300 nM,"pKi ([2]; Table III, read-out: Ki): 6.46"
"Clc1ccc2c(c1)C1NC(Cc3ccccc31)C2 [L-639,450]",–,–,"pKi [2, 11]: 6.82"

Compound,"pKi [2, 10]",Kb [3],other results
"CCCC12NC(Cc3ccccc31)c1ccccc12 [L-639,470]",5.07,3000 nM,–
"CN1C2Cc3ccccc3C1(C)c1ccccc12 [L-645,114]",6.29,–,–
"CN1C2Cc3ccccc3C1c1ccccc12 [L-638,276]",4.92,–,–
"CN1C2Cc3ccccc3C1(C)c1ccccc1C2 [L-637,686]",–,2000 nM,"pKi [2, 11]: 5.92"
"CN1C2(C)c3ccccc3C1(C)c1cc(C(F)(F)F)ccc12 [L-631,922]",–,–,"pKi ([2]; Table III, read-out: Ki): 3.96"
"CN1C2(C)Cc3ccccc3C1(C)c1ccccc12 [L-640,688]",6.15,870 nM,–
"CC12NC(Cc3ccccc31)c1ccccc12 [L-637,939]",6.25,90 nM,–
"CC12NC(Cc3ccccc31)c1ccccc12 (single isomer, unassigned) [L-640,689, 5-methyl-10,11-dihydro-5H-dibenzo[a,d]cyclohepten-5,10-imine]",7.40,–,"ED50 ([1]; Meriones unguiculatus, read-out: Depression of Hippocampal [Ca^2+] IC50): ~0.1 mg/kg; effect on responses to quisqualate (responses to quisqualate [4]): totally unaffected; Percentage of animals with full protection ([5]; 1 mg/kg i.p. one hour prior to 5 min bilateral occlusion): 60; Percentage of animals with full protection ([5]; 3 mg/kg i.p. one hour prior to 5 min bilateral occlusion): 80; Percentage of animals with full protection ([5]; 10 mg/kg i.p. one hour prior to 5 min bilateral occlusion): 70; Number dead (gerbils; 1 mg/kg i.p. one hour prior): 4; Number of animals surviving (gerbils; 1 mg/kg i.p. one hour prior): 11; Number dead (gerbils; 10 mg/kg i.p. one hour prior): 1; Number of animals surviving (gerbils; 10 mg/kg i.p. one hour prior): 14; shift to the right of the NMDA dose-response curve [6]: approximately 2.4 fold; Number of animals showing damage ([7]; 1 mg/kg i.p. one hour prior): 4; Number undamaged ([7]; 1 mg/kg i.p. one hour prior): 11; Number of animals showing damage ([7]; 10 mg/kg i.p. one hour prior): 3; Number undamaged ([7]; 10 mg/kg i.p. one hour prior): 12; Number of animals showing damage [8]: 1; Number undamaged [8]: 8; effect on responses to kainate (responses to kainate): totally unaffected; effect on responses to quisqualate (responses to quisqualate [9]): much less affected with only the highest dose slightly depressed"
"CC12NC(Cc3ccc(Cl)cc31)c1ccccc12 [L-641,294]",8.00,50 nM,–
"CN1C2c3ccccc3C1(C)c1ccccc12 [L-631,876]",–,–,"pKi ([2]; Table III, read-out: Ki): 5.16"
"CC12NC(Cc3ccccc31)c1ccc(Cl)cc12 [L-641,368]",7.10,1000 nM,–
"COc1ccc2c(c1)C1Cc3ccccc3C2(C)N1 [L-641,086]",7.40,–,–
"CN1C2(C)c3ccccc3C1(C)c1cc(C#N)ccc12 [L-633,239]",–,–,"pKi ([2]; Table III, read-out: Ki): 4.50"
"C=CCN1C2Cc3ccccc3C1(C)c1ccccc12 [L-639,015]",5.47,3100 nM,–
"CN1C2Cc3ccccc3C1(C)c1ccccc12 [L-638,275]",6.08,–,–
"COc1ccc2c(c1)CC1NC2(C)c2ccccc21 [L-641,074]",6.22,–,–
